Assay results published in paper PMC9413440, “An Iterative Approach Guides Discovery of the FabI Inhibitor Fabimycin, a Late-Stage Antibiotic Candidate with In Vivo Efficacy against Drug-Resistant Gram-Negative Infections” (ACS Central Science, 2022).
Values after ≈ are worked out from the molar mass of the structure shown.

Experiments:
A. baumannii AR-0313 = test: MIC, broth microdilution (CLSI); assay type: cell-based; conditions: Acinetobacter baumannii, AR0313; A. baumannii AR-0313 clinical isolate; † = dose-independent trailing growth
Procedure: (§1) II. Materials and Methods for Biological Experiments
(§2) S. aureus ATCC 29213 and E. coli MG1655 were obtained from the American Type Culture Collection (ATCC). E. coli BW25113 and E. coli JW5503 were obtained from the Keio Collection. AR-bank strains were obtained from the Centers for Disease Control and Prevention and FDA Antibiotic Resistance Isolate Bank.
(§3) Antimicrobial susceptibility tests
(§4) Susceptibility testing was performed in biological triplicate, unless noted otherwise, using the micro-dilution broth method as outlined by the Clinical and Laboratory Standards Institute. Bacteria were cultured with cation-adjusted Mueller Hinton broth (Sigma Aldrich, catalogue number: 90922). […]
(§5) Error bars represent the standard error of the mean of three biological replicates. All compounds evaluated in biological assays were ≥95% pure.

K. pneumoniae AR-0113 = test: MIC, broth microdilution (CLSI); assay type: cell-based; conditions: Klebsiella pneumoniae, AR0113; K. pneumoniae AR-0113 clinical isolate
Procedure: as §1, §2, §3, §4, §5

E. coli ΔtolC (JW5503) = test: MIC, broth microdilution (CLSI); assay type: cell-based, Escherichia coli
Procedure: as §1, §2, §3, §4
(§6) NH3: m/z 391.2 → 171.0. Fabimycin: m/z 405.3 → 145.3. Power analysis was not used to determine the number of replicates. Error bars represent the standard error of the mean of three biological replicates. All compounds evaluated in biological assays were ≥95% pure.

K. pneumoniae BAA-2472 = test: MIC, broth microdilution (CLSI); assay type: cell-based; conditions: Klebsiella pneumoniae, BAA2472
Procedure: as §1, §2, §3, §4, §6

S. aureus ATCC 29213 = test: MIC, broth microdilution (CLSI); assay type: cell-based; conditions: Staphylococcus aureus, ATCC29213; S. aureus 29213
Procedure: as §1, §2, §3, §4, §6

A. baumannii AR-0273 = test: MIC, broth microdilution (CLSI); assay type: cell-based; conditions: Acinetobacter baumannii, AR0273; A. baumannii AR-0273 clinical isolate
Procedure: as §1, §2, §3, §4, §6

E. coli AR-0048 = test: MIC, broth microdilution (CLSI); assay type: cell-based; conditions: Escherichia coli, AR0048; E. coli AR-0048 clinical isolate
Procedure: as §1, §2, §3, §4, §6

E. coli AR-0085 = test: MIC, broth microdilution (CLSI); assay type: cell-based; conditions: Escherichia coli, AR0085; E. coli AR-0085 clinical isolate
Procedure: as §1, §2, §3, §4, §6

K. pneumoniae AR-0066 = test: MIC, broth microdilution (CLSI); assay type: cell-based; conditions: Klebsiella pneumoniae, AR0066; K. pneumoniae AR-0066 clinical isolate
Procedure: as §1, §2, §3, §4, §6

A. baumannii AR-0033 = test: MIC, broth microdilution (CLSI); assay type: cell-based; conditions: Acinetobacter baumannii, AR0033; A. baumannii AR-0033 clinical isolate; † = dose-independent trailing growth
Procedure: as §1, §2, §3, §4, §6

K. pneumoniae AR-0560 = test: MIC, broth microdilution (CLSI); assay type: cell-based; conditions: Klebsiella pneumoniae, AR0560; K. pneumoniae AR-0560 clinical isolate
Procedure: as §1, §2, §3, §4, §6

A. baumannii AR-0299 = test: MIC, broth microdilution (CLSI); assay type: cell-based; conditions: Acinetobacter baumannii, AR0299; A. baumannii AR-0299 clinical isolate; † = dose-independent trailing growth
Procedure: as §1, §2, §3, §4, §6

E. coli MG1655 [1] = test: MIC, broth microdilution (CLSI); assay type: cell-based; conditions: Escherichia coli
Procedure: as §1, §2, §3, §4, §6

E. coli MG1655 [2] = test system: E. coli MG1655; design: method as in PMID 31740764; conditions: cited from earlier work
E. coli FabI = molecular target: T1, E. coli FabI (Escherichia coli, UniProt P0AEK4); test: In vitro FabI enzymatic inhibition assay; assay type: biochemical; conditions: EcFabI; Morrison's quadratic fit; 5 nM enzyme; read-out: Ki app
T1 construct: His(6) with TEV site (cleaved yes); made in house; host or cells: E. coli BL21(DE3)
T1 sequence (P0AEK4 whole entry): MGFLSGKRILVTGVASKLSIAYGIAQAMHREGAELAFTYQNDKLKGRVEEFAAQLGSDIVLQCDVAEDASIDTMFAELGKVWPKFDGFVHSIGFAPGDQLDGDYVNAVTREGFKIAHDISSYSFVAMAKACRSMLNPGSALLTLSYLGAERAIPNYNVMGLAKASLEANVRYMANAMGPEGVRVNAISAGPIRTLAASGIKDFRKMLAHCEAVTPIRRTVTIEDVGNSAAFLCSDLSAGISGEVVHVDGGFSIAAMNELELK
Procedure: (§7) supplemented with 100 µg/mL ampicillin at 37°C until OD600 reached 0.6-0.7. The cells were induced with 1mM IPTG and incubated for 20 hours at 18°C and spun down at 8000 rpm for 15 minutes. Cell pellet was resuspended in the lysis buffer (50 mM Tris-HCl pH 8.0, 500 mM Na Cl, 20 mM imidazole, 10% glycerol, 0.5 mM TCEP, protease inhibitor and Lysonase) and passed through microfluidizer followed by centrifugation and filtration to remove cell debris. The clarified lysate was supplemented with 20 mM imidazole and passed over a HisTrap column (Cytiva) pre-equilibrated with the wash buffer (50 mM Tris-HCl pH 8.0, 500 mM NaCl, 20 mM imidazole, 10% glycerol, 0.5 mM TCEP). The column was washed with the wash buffer and eluted over a 20-500 mM imidazole gradient. The appropriate fractions were pooled, and the histidine tag was removed by TEV cleavage. The protein mixture was passed over a HisTrap column to separate the cleaved protein from the uncleaved ones. The cleaved protein was pooled and passed over an S75 size exclusion column (GE LifeSciences) pre-equilibrated with 50 mM Tris-HCl pH 8.0, 500 mM NaCl, 0.5 mM TCEP and 10% glycerol. Fractions containing pure protein were pooled, concentrated at 10 mg/mL and stored at -80°C. […]
(§8) In vitro FabI enzymatic inhibition assay
(§9) Recombinant E. coli and A. baummani FabI enzymes were used in a continuous NADH absorbance assay (20 µL in 384w format). Compounds and the Crotonyl-CoA substrate (Sigma–Aldrich 28007) were dispensed into a plate (GeinerBio-One 781101). The reaction was initiated by the addition of a reaction master mix solution containing enzyme and NADH (Sigma–Aldrich N8129) suspended in reaction buffer (50 mM HEPES pH 7.4, 150 mM NaCl, 1 mM EDTA, 0.01 mg/mL BSA, 0.01% Tween). Final concentrations were 5 nM enzyme, 150 μM Crotonyl-CoA, 380 μM NADH, 0.05% DMSO in 1x reaction buffer. After shaking for 5 seconds the reaction was monitored at NADH absorbance (340nm, 25°C) using a Molecular Devices SpectraMax M5 microplate reader. The linear portion of the progress curve was fit using plate-reader software. Percentage activity was calculated relative to DMSO only and no-substrate controls in each plate and the data were fit to Morrison’s quadratic using Graphpad Prism 9.3 to obtain apparent inhibition constant (Ki app) values. […]
(§10) 480 Real-Time PCR System as a function of a temperature ramp (25-95°C; 0.1°/s) and the Tm was calculated using the […]

A. baumannii FabI = A. baumannii FabI (Acinetobacter baumannii, UniProt D0CAD5); test: In vitro FabI enzymatic inhibition assay; assay type: biochemical; conditions: AbFabI; Morrison's quadratic fit; 5 nM enzyme; read-out: Ki app
Sequence of A. baumannii FabI (D0CAD5 entry or part of it): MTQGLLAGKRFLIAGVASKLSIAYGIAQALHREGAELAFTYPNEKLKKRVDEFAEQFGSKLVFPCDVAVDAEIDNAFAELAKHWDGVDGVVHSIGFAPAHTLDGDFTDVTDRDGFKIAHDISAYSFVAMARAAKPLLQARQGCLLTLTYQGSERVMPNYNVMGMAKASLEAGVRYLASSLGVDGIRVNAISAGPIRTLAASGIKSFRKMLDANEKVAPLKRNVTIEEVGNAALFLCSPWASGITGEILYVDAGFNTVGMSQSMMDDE
Procedure: as §7, §8, §9, §10

E. coli MG1655 [3] = test: Serial passaging; assay type: cell-based, Escherichia coli; conditions: E. coli MG1655, subinhibitory concentration, 21 days
Procedure: Serial passaging procedure was done as reported in literature.5 Briefly, E. coli MG1655 cells were grown in 0.6 mL of MH media containing fabimycin and ciprofloxacin (control) at different concentrations. Cells were added to the respective compounds at 0.25X, 0.5X, 1X, 2X, and 4X to start. At 22-24 hours the cultures were checked for growth. […]
compound at varying concentrations based off of the MIC. This serial passaging was repeated for 21 days. […]
All cells were cultured […]
at 37 °C under a 5% CO2 environment. Cell lines were authenticated by a commercial vendor and inspected visually in house. Cell lines were not tested for Mycoplasma contamination. The media was prepared by the University of Illinois School of Chemical Sciences Cell Media Facility.
H. sapiens HFF-1, A549, and HepG2 cells were seeded (3,000-6,000 cells/well) in a 96-well plate (Greiner Bio-One;

[4] = test system: A. baumannii clinical isolates (n=100); test: MIC50/MIC90, clinical isolate panel; assay type: cell-based; conditions: Acinetobacter baumannii; A. baumannii (n=100) clinical isolates
[5] = test system: K. pneumoniae clinical isolates (n=100); test: MIC50/MIC90, clinical isolate panel; assay type: cell-based; conditions: Klebsiella pneumoniae; K. pneumoniae (n=100) clinical isolates
Text: Figure 4 Antimicrobial activity of fabimycin against clinical isolates. (A) The susceptibility of clinical isolates (Gram-negative species and S. aureus) to fabimycin, Debio-1452-NH3, and Debio-1452. MICs performed in biological triplicate. (B) Further exploration of the breadth of fabimycin’s antibacterial activity against diverse clinical isolate panels of K. pneumoniae and A. baumannii, as compared to levofloxacin. MICs performed in biological duplicate.
as §1, §2, §3, §4, §5

Row | Structure (SMILES) | MIC (A. baumannii AR-0313) | MIC (K. pneumoniae AR-0113) | MIC (E. coli ΔtolC (JW5503); Escherichia coli) | MIC (K. pneumoniae BAA-2472) | MIC (S. aureus ATCC 29213) | MIC (A. baumannii AR-0273) | MIC (E. coli AR-0048) | MIC (E. coli AR-0085) | MIC (K. pneumoniae AR-0066) | MIC (A. baumannii AR-0033) | MIC (K. pneumoniae AR-0560) | MIC (A. baumannii AR-0299) | MIC (E. coli MG1655 [1]) | also measured
1 | Cc1c(CN(C)C(=O)/C=C/c2cnc3c(c2)CCC(CN)C(=O)N3)oc2ccccc12 (racemic) [(±)-8] | > 32 µg/mL | 32 µg/mL (≈ 76.5 µM) | 0.125 µg/mL (≈ 0.299 µM) | 32 µg/mL (≈ 76.5 µM) | 0.031 µg/mL (≈ 0.0741 µM) | 32 µg/mL (≈ 76.5 µM) | 16 µg/mL (≈ 38.2 µM) | 8 µg/mL (≈ 19.1 µM) | 32 µg/mL (≈ 76.5 µM) | 16 µg/mL (≈ 38.2 µM) | 16 µg/mL (≈ 38.2 µM) | 32 µg/mL (≈ 76.5 µM) | 8 µg/mL (≈ 19.1 µM) | –
2 | Cc1c(CN(C)C(=O)/C=C/c2cnc3c(c2)CCC(CCN)C(=O)N3)oc2ccccc12 (racemic) [(±)-9] | – | – | 0.125 µg/mL (≈ 0.289 µM) | – | 0.062 µg/mL (≈ 0.143 µM) | – | – | – | – | – | – | – | 32 µg/mL (≈ 74 µM) | –
3 | Cc1c(CN(C)C(=O)/C=C/c2cnc3c(c2)CCC(=O)N3)oc2ccccc12 [Debio-1452, reference compound] | > 32 µg/mL | > 32 µg/mL | – | > 32 µg/mL | – | > 32 µg/mL | > 32 µg/mL | > 32 µg/mL | > 32 µg/mL | > 32 µg/mL | > 32 µg/mL | > 32 µg/mL | – | accumulation in Gram-negative bacteria (class in Figure 1A) (E. coli MG1655 [2]): Non-accumulator; MIC (E. coli ΔtolC (JW5503); E. coli ΔtolC = JW5503, efflux-deficient): 0.062 µg/mL (≈ 0.165 µM); Ki (E. coli FabI): 97 ± 19 nM; Ki (A. baumannii FabI): 431 ± 85 nM
4 | O=C(O)c1cn(C2CC2)c2cc(N3CCNCC3)c(F)cc2c1=O [ciprofloxacin, reference compound] | – | – | – | – | – | – | – | – | – | – | – | – | – | increase in the MIC after serial passaging (E. coli MG1655 [3]): 128 fold
5 | Cc1c(CN(C)C(=O)/C=C/c2cnc3c(c2)CC2(CNC2)C(=O)N3)oc2ccccc12 [compound 2] | 16 µg/mL (≈ 38.4 µM) | 16 µg/mL (≈ 38.4 µM) | 0.031 µg/mL (≈ 0.0744 µM) | 8 µg/mL (≈ 19.2 µM) | 0.016 µg/mL (≈ 0.0384 µM) | 8 µg/mL (≈ 19.2 µM) | 8 µg/mL (≈ 19.2 µM) | 4 µg/mL (≈ 9.6 µM) | 8 µg/mL (≈ 19.2 µM) | 8 µg/mL (≈ 19.2 µM) | 16 µg/mL (≈ 38.4 µM) | 16 µg/mL (≈ 38.4 µM) | 4 µg/mL (≈ 9.6 µM) | –
6 | C[C@H]1COc2c(N3CCN(C)CC3)c(F)cc3c(=O)c(C(=O)O)cn1c23 [levofloxacin, reference compound] | – | – | – | – | – | – | – | – | – | – | – | – | – | MIC50 [4]: 4 µg/mL (≈ 11.1 µM); MIC90 [4]: 32 µg/mL (≈ 88.6 µM); MIC50 [5]: 0.5 µg/mL (≈ 1.38 µM); MIC90 [5]: 32 µg/mL (≈ 88.6 µM)
